Laboratory results: US20260184748A1, “COMPOSITIONS COMPRISING OCTADECANEUROPEPTIDES (ODN) AND SYNTHETIC DERIVATIVES THEREOF AND METHODS OF USE FOR MODULATION OF FOOD INTAKE, OBESITY, BODY WEIGHT, NAUSEA, AND EMESIS” (The Trustees of the University of Pennsylvania, priority 2022, published 2026)
“And” between values parts separate entries of the source, which are not always exact repeats. Equal entries are not always repeated. Where two headings read alike, the source gives them in different places. Where a SMILES comes first, the peptide text is derived from it. Where no end group is shown, it is not given here.

Key:
[1] = rat, in vivo
GPR109B = GPR109B (Homo sapiens, UniProt P49019); test: Arrestin agonist mode; assay type: cell-based; settings: read-out: RC50 (the source's name)
GPR109B, sequence (P49019 whole entry): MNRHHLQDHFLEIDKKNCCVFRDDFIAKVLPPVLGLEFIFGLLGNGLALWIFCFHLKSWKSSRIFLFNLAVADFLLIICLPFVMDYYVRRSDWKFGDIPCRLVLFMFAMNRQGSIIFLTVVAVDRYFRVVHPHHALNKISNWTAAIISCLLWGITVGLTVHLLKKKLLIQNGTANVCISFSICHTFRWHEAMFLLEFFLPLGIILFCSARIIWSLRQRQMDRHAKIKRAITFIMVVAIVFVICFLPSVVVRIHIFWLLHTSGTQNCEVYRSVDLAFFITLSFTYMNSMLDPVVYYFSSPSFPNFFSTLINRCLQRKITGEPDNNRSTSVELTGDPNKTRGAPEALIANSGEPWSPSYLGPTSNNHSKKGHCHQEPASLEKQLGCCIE

NPSR1B = NPSR1B (Homo sapiens, UniProt Q6W5P4); test: Arrestin agonist mode; assay type: cell-based; settings: read-out: RC50 (the source's name)
NPSR1B, sequence (Q6W5P4 1-377 isoform Q6W5P4-4): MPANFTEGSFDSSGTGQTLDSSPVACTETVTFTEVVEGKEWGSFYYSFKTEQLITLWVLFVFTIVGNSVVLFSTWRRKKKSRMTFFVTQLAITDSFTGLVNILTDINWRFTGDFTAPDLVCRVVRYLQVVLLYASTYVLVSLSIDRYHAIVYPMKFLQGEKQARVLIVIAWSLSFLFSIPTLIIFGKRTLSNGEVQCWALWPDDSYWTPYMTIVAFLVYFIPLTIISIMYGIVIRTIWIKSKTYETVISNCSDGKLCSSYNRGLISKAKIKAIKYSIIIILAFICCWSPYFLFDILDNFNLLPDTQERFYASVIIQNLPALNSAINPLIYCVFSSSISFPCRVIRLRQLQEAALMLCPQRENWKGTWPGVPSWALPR

MLNR = MLNR (Homo sapiens, UniProt O43193); test: Arrestin agonist mode; assay type: cell-based; settings: read-out: RC50 (the source's name)
MLNR, sequence (O43193 whole entry): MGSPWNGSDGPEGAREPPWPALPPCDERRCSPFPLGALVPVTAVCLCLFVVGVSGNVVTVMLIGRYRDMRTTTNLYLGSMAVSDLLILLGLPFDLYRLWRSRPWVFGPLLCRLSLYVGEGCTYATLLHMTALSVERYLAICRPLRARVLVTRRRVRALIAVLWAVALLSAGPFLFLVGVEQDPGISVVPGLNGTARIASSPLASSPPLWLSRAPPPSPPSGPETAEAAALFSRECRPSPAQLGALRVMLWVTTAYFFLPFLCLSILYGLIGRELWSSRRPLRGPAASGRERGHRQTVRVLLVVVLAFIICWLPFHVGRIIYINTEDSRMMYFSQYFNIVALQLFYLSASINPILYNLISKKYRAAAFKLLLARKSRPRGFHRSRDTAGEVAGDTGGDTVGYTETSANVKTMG

P2RY2 = P2RY2 (Homo sapiens, UniProt P41231); test: Arrestin agonist mode; assay type: cell-based; settings: read-out: RC50 (the source's name)
P2RY2, sequence (P41231 whole entry): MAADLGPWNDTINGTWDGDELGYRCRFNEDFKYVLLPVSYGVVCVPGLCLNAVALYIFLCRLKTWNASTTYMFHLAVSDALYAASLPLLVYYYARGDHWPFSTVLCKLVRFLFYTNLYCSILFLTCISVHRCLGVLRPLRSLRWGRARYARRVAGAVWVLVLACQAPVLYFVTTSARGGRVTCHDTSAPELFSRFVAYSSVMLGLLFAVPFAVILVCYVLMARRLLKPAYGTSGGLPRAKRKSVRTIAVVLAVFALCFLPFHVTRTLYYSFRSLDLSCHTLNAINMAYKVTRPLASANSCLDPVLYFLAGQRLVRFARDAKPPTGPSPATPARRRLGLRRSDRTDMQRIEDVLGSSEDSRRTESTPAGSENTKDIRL

P2RY4 = P2RY4 (Homo sapiens, UniProt P51582); test: Arrestin agonist mode; assay type: cell-based; settings: read-out: RC50 (the source's name)
P2RY4, sequence (P51582 whole entry): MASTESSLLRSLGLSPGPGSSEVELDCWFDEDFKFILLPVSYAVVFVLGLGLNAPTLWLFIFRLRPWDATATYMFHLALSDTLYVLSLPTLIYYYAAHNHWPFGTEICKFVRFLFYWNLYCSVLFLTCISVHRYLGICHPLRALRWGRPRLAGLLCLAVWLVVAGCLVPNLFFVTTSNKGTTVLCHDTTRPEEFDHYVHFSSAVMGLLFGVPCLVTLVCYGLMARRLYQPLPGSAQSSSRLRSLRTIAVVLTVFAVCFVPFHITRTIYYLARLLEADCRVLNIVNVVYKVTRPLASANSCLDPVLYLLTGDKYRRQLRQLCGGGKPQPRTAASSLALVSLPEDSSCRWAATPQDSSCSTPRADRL

PTGIR = PTGIR (Homo sapiens, UniProt P43119); test: Arrestin agonist mode; assay type: cell-based; settings: read-out: RC50 (the source's name)
PTGIR, sequence (P43119 whole entry): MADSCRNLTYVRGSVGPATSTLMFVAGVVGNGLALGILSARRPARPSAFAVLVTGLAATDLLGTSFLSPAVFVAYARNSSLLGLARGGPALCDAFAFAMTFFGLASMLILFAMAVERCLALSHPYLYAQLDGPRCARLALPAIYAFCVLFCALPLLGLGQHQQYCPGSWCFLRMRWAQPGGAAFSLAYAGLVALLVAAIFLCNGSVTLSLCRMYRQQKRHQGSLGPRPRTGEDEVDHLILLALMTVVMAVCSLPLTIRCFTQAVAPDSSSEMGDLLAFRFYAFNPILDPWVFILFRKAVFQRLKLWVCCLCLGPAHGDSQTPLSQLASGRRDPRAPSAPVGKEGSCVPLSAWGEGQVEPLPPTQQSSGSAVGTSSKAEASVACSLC

GPCR panel = test: gpcrMAX agonist mode (beta-arrestin recruitment), GPCR Biosensor Assays; assay type: cell-based; parameters: Max Response: unit not given here
GPR119 = GPR119 (Homo sapiens, UniProt Q8TDV5); test: Arrestin agonist mode; assay type: cell-based; settings: read-out: RC50 (the source's name)
GPR119, sequence (Q8TDV5 whole entry): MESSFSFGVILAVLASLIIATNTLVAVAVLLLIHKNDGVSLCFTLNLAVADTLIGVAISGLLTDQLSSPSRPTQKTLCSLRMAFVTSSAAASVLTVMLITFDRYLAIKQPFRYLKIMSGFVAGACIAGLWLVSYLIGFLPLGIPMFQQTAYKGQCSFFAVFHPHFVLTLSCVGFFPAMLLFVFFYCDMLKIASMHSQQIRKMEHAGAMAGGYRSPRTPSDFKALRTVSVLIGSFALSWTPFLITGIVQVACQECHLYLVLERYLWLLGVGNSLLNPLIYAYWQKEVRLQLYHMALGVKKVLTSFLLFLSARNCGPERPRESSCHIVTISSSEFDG

TBXA2R = TBXA2R (Homo sapiens, UniProt P21731); test: Arrestin agonist mode; assay type: cell-based; settings: read-out: RC50 (the source's name)
TBXA2R, sequence (P21731 whole entry): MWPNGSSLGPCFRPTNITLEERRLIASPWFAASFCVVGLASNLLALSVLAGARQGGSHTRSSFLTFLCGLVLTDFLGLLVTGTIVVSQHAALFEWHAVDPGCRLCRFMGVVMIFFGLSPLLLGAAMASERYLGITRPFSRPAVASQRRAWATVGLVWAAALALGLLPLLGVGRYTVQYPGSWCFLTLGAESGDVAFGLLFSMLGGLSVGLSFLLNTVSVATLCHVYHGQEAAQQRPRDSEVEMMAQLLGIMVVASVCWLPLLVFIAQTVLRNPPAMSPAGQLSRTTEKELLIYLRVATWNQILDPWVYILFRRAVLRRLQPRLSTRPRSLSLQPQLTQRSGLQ

[2] = shrews; for emetic episodes: intraperitoneal
OXER1 = OXER1 (Homo sapiens, UniProt Q8TDS5); test: Arrestin agonist mode; assay type: cell-based; settings: read-out: RC50 (the source's name)
OXER1, sequence (Q8TDS5 whole entry): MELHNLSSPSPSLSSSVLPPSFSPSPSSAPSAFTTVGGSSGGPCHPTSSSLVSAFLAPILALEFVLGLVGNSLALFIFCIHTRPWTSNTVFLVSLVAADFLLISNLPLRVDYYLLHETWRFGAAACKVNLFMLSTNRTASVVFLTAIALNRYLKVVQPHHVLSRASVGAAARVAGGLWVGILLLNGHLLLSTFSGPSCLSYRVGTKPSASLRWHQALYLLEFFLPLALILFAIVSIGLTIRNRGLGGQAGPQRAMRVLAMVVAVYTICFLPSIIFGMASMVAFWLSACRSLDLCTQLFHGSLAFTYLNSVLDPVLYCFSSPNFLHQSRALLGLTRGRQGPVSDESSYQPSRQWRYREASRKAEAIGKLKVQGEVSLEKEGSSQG

[3] = Kaolin intake (pica) in rats; assay type: in vivo, rat
P2RY6 = P2RY6 (Homo sapiens, UniProt Q15077); test: Arrestin agonist mode; assay type: cell-based; settings: read-out: RC50 (the source's name)
P2RY6, sequence (Q15077 whole entry): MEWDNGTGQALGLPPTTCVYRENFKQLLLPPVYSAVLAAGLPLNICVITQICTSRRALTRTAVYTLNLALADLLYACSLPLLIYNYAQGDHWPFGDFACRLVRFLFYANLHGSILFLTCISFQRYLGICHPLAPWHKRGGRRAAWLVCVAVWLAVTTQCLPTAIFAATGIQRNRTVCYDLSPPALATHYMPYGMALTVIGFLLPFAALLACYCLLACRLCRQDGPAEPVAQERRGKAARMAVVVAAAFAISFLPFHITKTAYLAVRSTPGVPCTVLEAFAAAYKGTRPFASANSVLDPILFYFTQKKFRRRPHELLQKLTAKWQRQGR

[4] = 24 h body weight change in rats; assay type: in vivo, rat; settings: 4th ventricle injection
DBI protein expression = test: Hindbrain DBI immunohistochemistry and quantification; assay type: in vivo, rat; settings: 4th ventricle Ex-4 0.3 μg/2 μL in 24 h fasted HFD-maintained rats
Method: Rats maintained on chow or HFD were either ad libitum fed or fasted for 24 h. […] Rats were deeply anesthetized with KAX and transcardially perfused with 0.1 M phosphate-buffered saline (PBS; pH 7.4) followed by 4% paraformaldehyde in 0.1 M PBS on ice. Brains were removed from the crania and post-fixed in 4% paraformaldehyde for 24 h, then stored in 20% sucrose in 0.1 M PBS at 4° C. until sunk. Coronal dorsal vagal complex (DVC) sections (30 μm) were sliced and collected directly onto slides (12-550-15; Superfrost Plus, Fisher Scientific) using a cryostat and stored at −80° C. until the start of immunohistochemistry (IHC). Briefly, tissue was washed with 0.1 M PBS 3 times for 8 minutes and then incubated in blocking solution [5% normal donkey serum (Jackson Immunoresearch) in PBST; PBS with 0.3% triton X] followed by overnight incubation in rabbit anti-DBI primary antibody (1:500; ab231910, Abcam) and chicken anti-vimentin primary antibody (1:2000; ab24525, Abcam) at 4° C. […] Slides were visualized using fluorescence microscopy (BZ-X810, Keyence). Images analysis to quantify the fluorescent intensity of DBI protein staining in the nucleus solitary tractus (NTS) and area postrema (AP) as well as the % colocalization of DBI and vimentin staining in the AP, subpostrema, and 4th ventricle boarder was done using the HALO@FISH-IF and Area Quantification FL modules.

[5] = rat, in vivo, ip
PTAFR = PTAFR (Homo sapiens, UniProt P25105); test: Arrestin agonist mode; assay type: cell-based; settings: read-out: RC50 (the source's name)
PTAFR, sequence (P25105 whole entry): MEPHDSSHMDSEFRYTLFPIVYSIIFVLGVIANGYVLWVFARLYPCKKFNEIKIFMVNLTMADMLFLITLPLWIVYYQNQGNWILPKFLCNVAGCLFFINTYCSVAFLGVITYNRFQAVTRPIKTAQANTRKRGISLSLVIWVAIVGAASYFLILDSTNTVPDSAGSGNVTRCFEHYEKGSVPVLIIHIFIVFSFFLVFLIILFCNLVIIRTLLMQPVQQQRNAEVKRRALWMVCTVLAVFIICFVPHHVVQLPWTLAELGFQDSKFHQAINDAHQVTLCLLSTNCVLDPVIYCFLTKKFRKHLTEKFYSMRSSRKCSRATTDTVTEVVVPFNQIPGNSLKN

P2RY12 = P2RY12 (Homo sapiens, UniProt Q9H244); test: Arrestin agonist mode; assay type: cell-based; settings: read-out: RC50 (the source's name)
P2RY12, sequence (Q9H244 whole entry, one chain of several): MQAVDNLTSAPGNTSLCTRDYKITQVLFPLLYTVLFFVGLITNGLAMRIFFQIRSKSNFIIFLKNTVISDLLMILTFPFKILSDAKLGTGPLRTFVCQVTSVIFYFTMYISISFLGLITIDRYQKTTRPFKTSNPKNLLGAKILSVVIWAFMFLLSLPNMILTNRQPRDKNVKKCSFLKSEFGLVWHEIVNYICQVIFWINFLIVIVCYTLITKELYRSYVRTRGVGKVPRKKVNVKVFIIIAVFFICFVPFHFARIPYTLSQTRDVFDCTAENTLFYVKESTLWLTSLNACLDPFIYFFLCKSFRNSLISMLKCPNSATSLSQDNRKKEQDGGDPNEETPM

KISS1R = KISS1R (Homo sapiens, UniProt Q969F8); test: Arrestin agonist mode; assay type: cell-based; settings: read-out: RC50 (the source's name)
KISS1R, sequence (Q969F8 whole entry): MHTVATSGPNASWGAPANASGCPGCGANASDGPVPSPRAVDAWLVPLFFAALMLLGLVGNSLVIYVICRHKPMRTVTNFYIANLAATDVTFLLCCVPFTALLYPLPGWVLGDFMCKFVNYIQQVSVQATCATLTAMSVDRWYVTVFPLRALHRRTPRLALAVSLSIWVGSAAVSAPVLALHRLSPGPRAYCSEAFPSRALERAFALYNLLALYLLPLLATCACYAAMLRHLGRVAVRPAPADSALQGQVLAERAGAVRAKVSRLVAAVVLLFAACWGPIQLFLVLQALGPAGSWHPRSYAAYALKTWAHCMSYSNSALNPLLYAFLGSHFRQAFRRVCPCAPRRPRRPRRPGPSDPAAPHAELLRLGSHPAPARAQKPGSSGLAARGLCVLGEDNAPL

Molecule: CC(C)C[C@H](NC(=O)CNC(=O)[C@@H]1CCCN1C(=O)[C@@H](N)CCCNC(=N)N)C(=O)N[C@H](CC(C)C)C(=O)N[C@@H](CC(=O)O)C(=O)N[C@@H](CC(C)C)C(=O)N[C@@H](CCCCN)C(N)=O [AntOP, Arg-Pro-Gly-Leu-(D-Leu)-Asp-Leu-Lys] (HELM PEPTIDE1{R.P.G.L.[dL].D.L.K.[am]}$$$$V2.0)
- effect of pretreatment on Ex-4-induced kaolin intake [1]: did not significantly elevate kaolin intake relative to controls

Molecule: CCCCCC(O)CC(=O)O (stereo not drawn) [3-Hydroxyoctanoic Acid]
- EC50 (GPR109B): 373000 nM

Molecule: SFRNGVGTGMKKTSFQRAKS [Neuropeptide S]
- EC50 (NPSR1B): 23.6 nM

Molecule: CC[C@H](C)[C@H](NC(=O)[C@@H]1CCCN1C(=O)[C@@H](NC(=O)[C@@H](N)Cc1ccccc1)C(C)C)C(=O)N[C@@H](Cc1ccccc1)C(=O)N[C@H](C(=O)N[C@@H](Cc1ccc(O)cc1)C(=O)NCC(=O)N[C@@H](CCC(=O)O)C(=O)N[C@@H](CC(C)C)C(=O)N[C@@H](CCC(N)=O)C(=O)N[C@@H](CCCNC(=N)N)C(=O)N[C@@H](CCSC)C(=O)N[C@@H](CCC(N)=O)C(=O)N[C@@H](CCC(=O)O)C(=O)N[C@@H](CCCCN)C(=O)N[C@@H](CCC(=O)O)C(=O)N[C@@H](CCCNC(=N)N)C(=O)N[C@@H](CC(N)=O)C(=O)N[C@@H](CCCCN)C(=O)NCC(=O)N[C@@H](CCC(N)=O)C(=O)O)[C@@H](C)O [Motilin]
- EC50 (MLNR): 1.59 nM

Molecule: O=c1ccn([C@@H]2O[C@H](COP(=O)(O)OP(=O)(O)OP(=O)(O)O)[C@@H](O)[C@H]2O)c(=O)[nH]1 [UTP]
- EC50 (P2RY2): 431 nM
- EC50 (P2RY4): 126 nM

Molecule: CC#CCC(C)[C@H](O)/C=C/[C@@H]1[C@H]2c3cccc(CCCC(=O)O)c3O[C@H]2C[C@H]1O (mixture of isomers) [Beraprost]
- EC50 (PTGIR): 219 nM

Molecule: CC(C)C[C@H](NC(=O)[C@H](CCCCN)NC(=O)CNC(=O)[C@H](CC(C)C)NC(=O)[C@@H](NC(=O)[C@@H]1CSSC[C@H](N)C(=O)N[C@@H](CO)C(=O)N[C@@H](CC(N)=O)C(=O)N[C@@H](CC(C)C)C(=O)N[C@@H](CO)C(=O)N[C@@H]([C@@H](C)O)C(=O)N1)C(C)C)C(=O)N[C@@H](CO)C(=O)N[C@@H](CCC(N)=O)C(=O)N[C@@H](CCC(=O)O)C(=O)N[C@@H](CC(C)C)C(=O)N[C@@H](Cc1c[nH]cn1)C(=O)N[C@@H](CCCCN)C(=O)N[C@@H](CC(C)C)C(=O)N[C@@H](CCC(N)=O)C(=O)N[C@H](C(=O)N[C@@H](Cc1ccc(O)cc1)C(=O)N1CCC[C@H]1C(=O)N[C@@H](CCCNC(=N)N)C(=O)N[C@H](C(=O)N[C@@H](CC(N)=O)C(=O)N[C@H](C(=O)NCC(=O)N[C@@H](CO)C(=O)NCC(=O)N[C@H](C(=O)N1CCC[C@H]1C(N)=O)[C@@H](C)O)[C@@H](C)O)[C@@H](C)O)[C@@H](C)O [Calcitonin]
- Max Response (GPCR panel): 102.54 and 108.07 and 103.06

Molecule: CCCCCCCC/C=C\CCCCCCCC(=O)NCCO [Oleoyl Ethanolamide]
- EC50 (GPR119): 1840 nM

Molecule: CCCCCCC(C)(C)c1ccc([C@@H]2C[C@H](O)CC[C@H]2CCCO)c(O)c1 [CP55940]
- Max Response (GPCR panel): 104.27 and 99.599

Molecule: O=C(O)CCC/C=C\C[C@@H]1[C@@H](/C=C/[C@@H](O)COc2ccc(I)cc2)[C@H]2CC[C@@H]1O2 [I-BOP]
- EC50 (TBXA2R): 21.3 nM

Molecule: COc1ccc2[nH]c(I)c(CCNC(C)=O)c2c1 [2-Iodomelatonin]
- EC80 (GPCR panel): 2.77 nM
- Max Response (GPCR panel): 102.67

Molecule: QATVGDVNTDRPGLLDLK-NH2 [ODN]
- emesis ([2]; intraperitoneal 500 μg/kg or 5000 μg/kg): without including emesis
- emetic episodes ([2]; high ODN dose): no emetic episodes were observed
- emetic episodes ([2]; low ODN dose): one of 9 shrews had an emetic episode

Molecule: CCCCC/C=C\C/C=C\C/C=C\C=C\C(=O)CCCC(=O)O [5-OxoETE]
- EC50 (OXER1): 1140 nM

Molecule: DVNTDRPGLLDLK-NH2 [TDN]
- kaolin intake ([3]; 4th ventricle injection, HFD-maintained rats): mildly increase kaolin intake in HFD-maintained rats
- kaolin intake ([3]; 4th ventricle injection, chow-maintained rats): did not alter kaolin intake in chow rats
- kaolin intake ([3]; lateral ventricle injection, chow and HFD rats): did not affect kaolin intake

Molecule: CC[C@H](C)[C@H](NC(=O)CNC(=O)[C@H](CCCNC(=N)N)NC(=O)[C@H](CO)NC(=O)[C@H](C)NC(=O)[C@H](Cc1ccc(O)cc1)NC(=O)[C@H](Cc1c[nH]c2ccccc12)NC(=O)[C@H](C)NC(=O)[C@@H]1CCCN1C(=O)[C@H](CC(N)=O)NC(=O)[C@@H](NC(=O)[C@H](CC(=O)O)NC(=O)[C@@H]1CCCN1C(=O)[C@@H](NC(=O)[C@H](CCCNC(=N)N)NC(=O)[C@@H](NC(=O)[C@H](CCC(=O)O)NC(=O)[C@H](CCSC)NC(=O)[C@H](CO)NC(=O)[C@H](Cc1c[nH]cn1)NC(=O)[C@H](CCCNC(=N)N)NC(=O)[C@H](Cc1c[nH]cn1)NC(=O)[C@@H](NC(=O)[C@H](CCCNC(=N)N)NC(=O)[C@@H](N)CO)[C@@H](C)O)[C@@H](C)CC)[C@@H](C)O)[C@@H](C)CC)C(=O)N[C@@H](CCCNC(=N)N)C(=O)N1CCC[C@H]1C(=O)N[C@H](C(=O)NCC(=O)N[C@@H](CCCNC(=N)N)C(=O)N[C@@H](Cc1ccccc1)C(N)=O)C(C)C [PrRP-31]
- EC80 (GPCR panel): 10.72 nM
- Max Response (GPCR panel): 101.19

Molecule: O=c1ccn([C@@H]2O[C@H](COP(=O)(O)OP(=O)(O)O)[C@@H](O)[C@H]2O)c(=O)[nH]1 [UDP]
- EC50 (P2RY6): 13.3 nM

Molecule: exendin-4 [Ex-4]
- 24 h body weight change ([4]; HFD-maintained rats): decreased 24 h body weight change relative to controls
- 24 h body weight change ([4]; chow-maintained rats): decreased 24 h body weight change relative to controls
- DBI protein expression in NTS and AP (DBI protein expression): not different between treatments in HFD-maintained rats

Molecule: CCCCCCCCCCCCCCCC(=O)N[C@@H](CCC(=O)NCCCC[C@H](NC(=O)[C@H](C)NC(=O)[C@H](C)NC(=O)[C@H](CCC(N)=O)NC(=O)CNC(=O)[C@H](CCC(=O)O)NC(=O)[C@H](CC(C)C)NC(=O)[C@H](Cc1ccc(O)cc1)NC(=O)[C@H](CO)NC(=O)[C@H](CO)NC(=O)[C@@H](NC(=O)[C@H](CC(=O)O)NC(=O)[C@H](CO)NC(=O)[C@@H](NC(=O)[C@H](Cc1ccccc1)NC(=O)[C@@H](NC(=O)CNC(=O)[C@H](CCC(=O)O)NC(=O)[C@H](C)NC(=O)[C@@H](N)Cc1cnc[nH]1)[C@@H](C)O)[C@@H](C)O)C(C)C)C(=O)N[C@@H](CCC(=O)O)C(=O)N[C@@H](Cc1ccccc1)C(=O)N[C@H](C(=O)N[C@@H](C)C(=O)N[C@@H](Cc1c[nH]c2ccccc12)C(=O)N[C@@H](CC(C)C)C(=O)N[C@H](C(=O)N[C@@H](CCCNC(=N)N)C(=O)NCC(=O)N[C@@H](CCCNC(=N)N)C(=O)NCC(=O)O)C(C)C)[C@@H](C)CC)C(=O)O [Liraglutide, liraglutide]
- kaolin intake [5]: Kaolin intake was increased

Molecule: CCCCCCCCCCCCCCCCOC[C@H](COP(=O)([O-])OCC[N+](C)(C)C)OC(C)=O [PAF]
- EC50 (PTAFR): 3.82 nM

Molecule: CSc1nc(N)c2ncn([C@@H]3O[C@H](COP(=O)(O)OP(=O)(O)O)[C@@H](O)[C@H]3O)c2n1 [2-methylthio-ADP]
- EC50 (P2RY12): 2.72 nM

Molecule: CC(C)C[C@H](NC(=O)CNC(=O)[C@H](Cc1ccccc1)NC(=O)[C@H](CO)NC(=O)[C@H](CC(N)=O)NC(=O)[C@H](Cc1c[nH]c2ccccc12)NC(=O)[C@H](CC(N)=O)NC(=O)[C@@H](N)Cc1ccc(O)cc1)C(=O)N[C@@H](CCCNC(=N)N)C(=O)N[C@@H](Cc1ccccc1)C(N)=O [Kisspeptin-10]
- EC50 (KISS1R): 17.6 nM
